Data taken from ChEMBL document CHEMBL1201862, “PubChem BioAssay data set” (2004).
Activity calls are given as the source filed them.

How the values were obtained:
[1] = HPDE-C7 pancreatic duct cell viability loss – fluorescence, HTS (AID 430); assay type: functional, cell-based; settings: Homo sapiens
[2] = viability loss of HPDE-C7K cells – cell-based, fluorescence, HTS, primary screen (AID 431); assay type: functional; settings: Homo sapiens
[3] = Luminescence Cell-Based Dose Retest to Confirm Inhibitors of Cancer Stem Cells. [Related pubchem assays (depositor defined):AID2717, AID2721]; assay type: functional; settings: Homo sapiens
[4] = cells; assay type: functional
[5] = target: T1, fMet-Leu-Phe receptor (Homo sapiens, UniProt P21462); assay: formyl peptide receptor binders – dose response (AID 519); assay type: functional
T1 sequence (P21462 whole entry): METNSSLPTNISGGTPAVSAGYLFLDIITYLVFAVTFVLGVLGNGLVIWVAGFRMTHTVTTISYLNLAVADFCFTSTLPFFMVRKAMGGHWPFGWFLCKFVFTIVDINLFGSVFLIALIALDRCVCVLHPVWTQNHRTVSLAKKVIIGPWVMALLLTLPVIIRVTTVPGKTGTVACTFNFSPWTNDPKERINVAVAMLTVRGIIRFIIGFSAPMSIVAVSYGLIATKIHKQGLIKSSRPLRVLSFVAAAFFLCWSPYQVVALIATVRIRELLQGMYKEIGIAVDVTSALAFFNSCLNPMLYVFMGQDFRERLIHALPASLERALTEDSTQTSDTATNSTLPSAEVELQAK

[6] = THP-1 cell cytotoxicity, dose response, cytotoxicity control for non-replicating M. tuberculosis project (AID 489025); assay type: functional
[7] = HepG2 cell cytotoxicity, dose response, cytotoxicity control for non-replicating M. tuberculosis project (AID 489018); assay type: functional; settings: Mycobacterium tuberculosis
[8] = Vero E6 cell cytotoxicity, dose response, cytotoxicity control for non-replicating M. tuberculosis project, secondary assay (AID 492998); assay type: functional, VeroE6; settings: Vero C1008
[9] = target: Nonstructural protein 1 (Influenza A virus, UniProt Q194T2); assay type: functional, Influenza A virus (A/California/07/2009(H1N1))
[10] = target: Cytochrome P450 2C19 (Homo sapiens, UniProt P33261); assay: Cytochrome panel assay with activity outcomes. Panel member name: p450-cyp2c19 Compounds with AC50 equal or less than 10 uM are considered active; assay type: functional; settings: read-out: AC50
[11] = target: Cytochrome P450 3A4 (Homo sapiens, UniProt P08684);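 note: CYP3A4 tested as one member of a cytochrome P450 panel screen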
[12] = target: T2, Aminopeptidase N (Plasmodium falciparum FcB1/Columbia, UniProt O96935); assay: malaria alanyl aminopeptidase activity blockers – biochemical, fluorogenic H-Leu-NHMec substrate, 1536-well (AID 1445); set-up: species or system Plasmodium falciparum 3D7, 3D7
T2 sequence (O96935 whole entry): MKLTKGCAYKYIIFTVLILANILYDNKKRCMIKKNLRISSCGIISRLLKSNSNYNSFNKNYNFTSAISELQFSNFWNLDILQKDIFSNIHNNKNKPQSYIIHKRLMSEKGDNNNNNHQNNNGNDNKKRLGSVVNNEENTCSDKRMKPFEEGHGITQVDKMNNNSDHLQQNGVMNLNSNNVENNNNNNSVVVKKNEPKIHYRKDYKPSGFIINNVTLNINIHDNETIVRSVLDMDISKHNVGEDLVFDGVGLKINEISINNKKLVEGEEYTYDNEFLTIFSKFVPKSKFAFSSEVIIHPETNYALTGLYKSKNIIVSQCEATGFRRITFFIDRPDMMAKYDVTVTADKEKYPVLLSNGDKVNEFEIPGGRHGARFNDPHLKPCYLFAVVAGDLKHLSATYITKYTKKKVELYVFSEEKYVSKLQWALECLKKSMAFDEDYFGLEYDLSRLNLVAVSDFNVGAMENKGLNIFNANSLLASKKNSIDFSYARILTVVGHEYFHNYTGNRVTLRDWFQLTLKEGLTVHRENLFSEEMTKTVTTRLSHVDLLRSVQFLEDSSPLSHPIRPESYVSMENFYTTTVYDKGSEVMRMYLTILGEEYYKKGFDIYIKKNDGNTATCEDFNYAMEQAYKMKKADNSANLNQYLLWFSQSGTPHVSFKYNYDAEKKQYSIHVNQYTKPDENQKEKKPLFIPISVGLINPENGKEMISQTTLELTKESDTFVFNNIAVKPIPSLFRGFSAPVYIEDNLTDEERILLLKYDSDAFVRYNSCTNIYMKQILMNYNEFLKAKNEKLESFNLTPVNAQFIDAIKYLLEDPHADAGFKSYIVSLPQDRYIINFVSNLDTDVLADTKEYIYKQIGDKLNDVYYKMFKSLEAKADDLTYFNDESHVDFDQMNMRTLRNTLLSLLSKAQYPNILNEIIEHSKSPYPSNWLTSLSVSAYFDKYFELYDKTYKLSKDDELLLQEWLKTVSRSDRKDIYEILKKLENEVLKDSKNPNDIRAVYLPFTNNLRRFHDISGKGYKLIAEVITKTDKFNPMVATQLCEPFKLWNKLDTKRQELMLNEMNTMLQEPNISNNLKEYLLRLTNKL

[13] = target: T3, RNA-binding protein pos-1 (Caenorhabditis elegans, UniProt G5EF15); assay: disruptors of C. elegans POS-1 RNA interaction – biochemical, fluorescence polarization, dose response (AID 1964);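 note: purified POS-1 fused to maltose binding protein made in E. coli; potency of compounds blocking POS-1 binding to fluorescent RNA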
T3 sequence (G5EF15 whole entry): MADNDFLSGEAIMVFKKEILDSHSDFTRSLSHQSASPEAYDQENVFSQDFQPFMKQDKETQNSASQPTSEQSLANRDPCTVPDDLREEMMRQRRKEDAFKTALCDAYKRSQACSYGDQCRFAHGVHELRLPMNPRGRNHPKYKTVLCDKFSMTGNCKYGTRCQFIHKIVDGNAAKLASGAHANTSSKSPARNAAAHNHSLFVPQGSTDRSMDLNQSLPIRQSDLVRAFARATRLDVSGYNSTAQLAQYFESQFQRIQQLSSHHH

[14] = target: T4, Zinc finger protein mex-5 (Caenorhabditis elegans, UniProt Q9XUB2); assay: potency of MEX-5 RNA-binding blockers – biochemical, C. elegans, fluorescence polarization, dose response (AID 1960)
T4 sequence (Q9XUB2 whole entry): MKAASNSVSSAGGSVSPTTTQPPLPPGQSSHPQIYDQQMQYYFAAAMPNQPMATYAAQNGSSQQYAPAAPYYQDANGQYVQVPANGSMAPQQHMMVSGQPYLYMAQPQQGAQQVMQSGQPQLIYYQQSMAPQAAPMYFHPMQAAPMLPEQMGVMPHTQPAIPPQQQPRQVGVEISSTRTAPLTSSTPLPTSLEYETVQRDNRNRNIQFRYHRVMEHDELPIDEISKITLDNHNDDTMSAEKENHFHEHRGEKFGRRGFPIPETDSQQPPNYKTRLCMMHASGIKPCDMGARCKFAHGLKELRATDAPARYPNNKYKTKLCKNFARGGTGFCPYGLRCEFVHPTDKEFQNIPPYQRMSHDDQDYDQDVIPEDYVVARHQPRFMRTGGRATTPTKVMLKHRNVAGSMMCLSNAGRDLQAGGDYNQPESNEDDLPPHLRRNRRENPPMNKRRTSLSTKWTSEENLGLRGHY

[15] = target: G-protein coupled receptor 55 (Homo sapiens, UniProt Q9Y2T6); assay: selective activators of receptor GPR55 – imaging, U2OS cells, beta-arrestin-GFP redistribution, primary screen (AID 1961); assay type: functional
[16] = target: T5, Ubiquitin-conjugating enzyme E2 N (Homo sapiens, UniProt P61088); assay type: functional;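 note: Dose-response confirmation in a TR-FRET assay detecting UBC13-driven polyubiquitin chain formation, inhibition measured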
T5 sequence (P61088 whole entry): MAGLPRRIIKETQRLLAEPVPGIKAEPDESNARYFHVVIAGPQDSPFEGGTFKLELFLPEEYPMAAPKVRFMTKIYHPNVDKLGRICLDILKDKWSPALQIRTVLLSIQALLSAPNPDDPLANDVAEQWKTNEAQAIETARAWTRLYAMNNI

[17] = target: Beta-galactosidase (Escherichia coli, UniProt Q8VNN2); assay: detection-enzyme interference by beta-gal modulators – biochemical, E. coli enzyme, set 3, artefact control for CCR6 antagonist project, dose response (AID 504712); assay type: functional
[18] = target: T6, Polyadenylate-binding protein 1 (Homo sapiens, UniProt P11940); assay: MLLE binding blockers, Cy5 peptide tracer – biochemical, fluorescence polarization, Cy5-PAM2 peptide, secondary, miRNA deadenylation inhibitor project, dose response (AID 602260); assay type: functional; settings: read-out: IC50_Mean
[19] = target: T6, Polyadenylate-binding protein 1; assay: MLLE domain peptide-binding blockers, IC50 – biochemical, fluorescence polarization, FITC-PAM2 peptide, dose response (AID 602259); assay type: functional; settings: read-out: IC50_Mean
[20] = target: Paired box protein Pax-8 (Homo sapiens, UniProt Q06710); assay: PAX8 transcriptional activity inhibition in RMG-I – RMG-I cells, luciferase, cherry-pick, dose response (AID 687027); assay type: functional, cell-based;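 note: luciferase reporter driven by Pax8 target thyroperoxidase promoter measured by SteadyGlo luminescence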
[21] = target: Disintegrin and metalloproteinase domain-containing protein 17 (Homo sapiens, UniProt P78536); assay: inhibition of ADAM17 substrate cleavage – biochemical, quenched FRET substrate, counter-screen for ADAM10 exosite inhibitor project, dose response (AID 743253)
[22] = Luminescence Cell-Based Dose Confirmation HTS to Identify Activators of 5'UTR Stem-Loop Driven Alpha-Synuclein mRNA Translation in H4 Neuroglioblastoma Cells. [Related pubchem assays: 1829 (Project Summary), 1814 (Primary HTS)]; assay type: functional
[23] = Luminescence Cell-Based Dose Response HTS to Identify Activators of Luciferase Translation or Activity in H4 […] Cells. [Related pubchem assays: 1829 (Project Summary), 1814 (Primary HTS)]; assay type: functional
[24] = system: H4; assay: Luminescence Cell-Based Dose Response HTS to Identify Activators of 5'UTR Stem-Loop Driven Prion Protein mRNA Translation in H4 Neuroglioblastoma Cells. [Related pubchem assays: 1829 (Project Summary), 1814 (Primary HTS)]; assay type: functional; settings: Homo sapiens
[25] = target: Protein Wnt-3a (Mus musculus, UniProt P27467); assay: antagonism of Wnt3a pathway luciferase reporter – Wnt-LIGHT cells, luminescence, selectivity assay for Gli-SUFU antagonist project, dose response (AID 651570); assay type: functional; settings: read-out: IC50_Mean;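 note: Wnt-LIGHT reporter cells stimulated with conditioned medium from Wnt3a-producing cells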
[26] = target: Voltage-gated N-type calcium channel alpha-1B subunit/Amyloid beta A4 precursor protein-binding family A member 1 (Homo sapiens, UniProt Q00975+Q02410); assay type: protein assay

T6 sequence (P11940 whole entry, the tested form may be a part): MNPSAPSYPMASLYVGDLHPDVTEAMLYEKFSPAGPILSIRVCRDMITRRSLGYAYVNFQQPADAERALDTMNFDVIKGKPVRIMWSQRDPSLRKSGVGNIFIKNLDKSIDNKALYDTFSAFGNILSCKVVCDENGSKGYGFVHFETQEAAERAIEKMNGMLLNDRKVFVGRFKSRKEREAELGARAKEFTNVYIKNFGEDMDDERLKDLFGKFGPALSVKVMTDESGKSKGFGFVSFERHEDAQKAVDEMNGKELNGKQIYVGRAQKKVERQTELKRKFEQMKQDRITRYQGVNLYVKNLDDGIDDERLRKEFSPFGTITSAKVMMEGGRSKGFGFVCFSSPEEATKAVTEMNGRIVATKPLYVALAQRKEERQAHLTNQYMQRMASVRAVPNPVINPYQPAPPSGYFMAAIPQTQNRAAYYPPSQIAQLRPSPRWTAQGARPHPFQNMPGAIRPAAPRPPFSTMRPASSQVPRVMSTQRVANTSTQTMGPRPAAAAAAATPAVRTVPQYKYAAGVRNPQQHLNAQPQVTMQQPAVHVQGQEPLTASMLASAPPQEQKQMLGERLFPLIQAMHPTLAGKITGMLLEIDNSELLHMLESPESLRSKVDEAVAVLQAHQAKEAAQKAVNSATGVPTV
Cytochrome P450 3A4, sequence (P08684 whole entry): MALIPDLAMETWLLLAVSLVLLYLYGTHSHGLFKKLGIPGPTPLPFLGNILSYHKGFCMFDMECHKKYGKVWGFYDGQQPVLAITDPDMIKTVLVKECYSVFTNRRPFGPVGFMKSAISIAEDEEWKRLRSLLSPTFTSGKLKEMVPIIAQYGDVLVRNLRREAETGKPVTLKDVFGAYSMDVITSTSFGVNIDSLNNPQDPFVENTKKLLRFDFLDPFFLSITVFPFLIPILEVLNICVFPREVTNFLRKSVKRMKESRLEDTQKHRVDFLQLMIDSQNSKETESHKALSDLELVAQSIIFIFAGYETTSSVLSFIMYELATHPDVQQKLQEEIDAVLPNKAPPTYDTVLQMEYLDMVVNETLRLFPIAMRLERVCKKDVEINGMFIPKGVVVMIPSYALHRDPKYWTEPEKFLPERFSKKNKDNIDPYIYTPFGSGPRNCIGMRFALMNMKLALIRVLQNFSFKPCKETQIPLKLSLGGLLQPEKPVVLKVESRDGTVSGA
G-protein coupled receptor 55, sequence (Q9Y2T6 whole entry): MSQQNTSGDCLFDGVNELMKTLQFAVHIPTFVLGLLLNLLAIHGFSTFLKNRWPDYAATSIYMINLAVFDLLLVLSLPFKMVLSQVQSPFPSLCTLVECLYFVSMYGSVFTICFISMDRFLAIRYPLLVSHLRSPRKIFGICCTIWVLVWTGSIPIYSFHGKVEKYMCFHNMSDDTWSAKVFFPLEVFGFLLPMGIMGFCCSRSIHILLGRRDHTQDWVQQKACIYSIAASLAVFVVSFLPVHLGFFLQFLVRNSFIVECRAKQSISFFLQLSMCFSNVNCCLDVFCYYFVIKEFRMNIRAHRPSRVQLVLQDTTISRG
Paired box protein Pax-8, sequence (Q06710 whole entry, the tested form may be a part): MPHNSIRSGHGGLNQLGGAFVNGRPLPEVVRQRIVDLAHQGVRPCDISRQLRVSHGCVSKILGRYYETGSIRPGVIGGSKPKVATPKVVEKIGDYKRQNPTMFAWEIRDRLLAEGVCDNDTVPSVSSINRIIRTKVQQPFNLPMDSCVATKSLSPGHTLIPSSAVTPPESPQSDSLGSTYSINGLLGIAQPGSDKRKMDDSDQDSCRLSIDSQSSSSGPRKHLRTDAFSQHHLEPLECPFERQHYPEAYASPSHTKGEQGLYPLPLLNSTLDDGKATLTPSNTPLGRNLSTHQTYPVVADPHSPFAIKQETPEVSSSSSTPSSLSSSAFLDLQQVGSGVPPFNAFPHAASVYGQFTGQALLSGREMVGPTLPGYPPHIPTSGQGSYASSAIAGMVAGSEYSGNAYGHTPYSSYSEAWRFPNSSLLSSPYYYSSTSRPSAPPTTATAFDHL
Disintegrin and metalloproteinase domain-containing protein 17, sequence (P78536 whole entry, the tested form may be a part): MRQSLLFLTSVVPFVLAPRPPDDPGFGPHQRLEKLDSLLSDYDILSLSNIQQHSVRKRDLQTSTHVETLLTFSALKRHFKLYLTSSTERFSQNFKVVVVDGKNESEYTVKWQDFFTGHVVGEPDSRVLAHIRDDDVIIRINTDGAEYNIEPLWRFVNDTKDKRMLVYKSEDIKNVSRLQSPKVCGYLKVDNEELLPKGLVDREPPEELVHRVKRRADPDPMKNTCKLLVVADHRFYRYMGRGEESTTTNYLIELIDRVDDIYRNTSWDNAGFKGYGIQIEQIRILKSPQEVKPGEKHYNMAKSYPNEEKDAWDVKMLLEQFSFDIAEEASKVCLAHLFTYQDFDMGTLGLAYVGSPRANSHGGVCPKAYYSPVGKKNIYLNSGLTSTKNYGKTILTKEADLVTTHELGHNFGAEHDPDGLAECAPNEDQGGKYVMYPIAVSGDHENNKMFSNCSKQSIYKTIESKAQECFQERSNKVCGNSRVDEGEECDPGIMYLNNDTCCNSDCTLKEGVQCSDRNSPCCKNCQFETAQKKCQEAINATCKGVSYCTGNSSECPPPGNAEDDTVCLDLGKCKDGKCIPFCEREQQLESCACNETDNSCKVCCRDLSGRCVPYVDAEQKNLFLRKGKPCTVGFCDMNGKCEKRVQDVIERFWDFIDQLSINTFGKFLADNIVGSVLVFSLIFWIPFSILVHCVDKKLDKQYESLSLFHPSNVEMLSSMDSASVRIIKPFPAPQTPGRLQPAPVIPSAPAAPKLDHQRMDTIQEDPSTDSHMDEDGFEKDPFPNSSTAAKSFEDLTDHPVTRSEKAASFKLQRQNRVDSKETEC
Beta-galactosidase, sequence (Q8VNN2 whole entry): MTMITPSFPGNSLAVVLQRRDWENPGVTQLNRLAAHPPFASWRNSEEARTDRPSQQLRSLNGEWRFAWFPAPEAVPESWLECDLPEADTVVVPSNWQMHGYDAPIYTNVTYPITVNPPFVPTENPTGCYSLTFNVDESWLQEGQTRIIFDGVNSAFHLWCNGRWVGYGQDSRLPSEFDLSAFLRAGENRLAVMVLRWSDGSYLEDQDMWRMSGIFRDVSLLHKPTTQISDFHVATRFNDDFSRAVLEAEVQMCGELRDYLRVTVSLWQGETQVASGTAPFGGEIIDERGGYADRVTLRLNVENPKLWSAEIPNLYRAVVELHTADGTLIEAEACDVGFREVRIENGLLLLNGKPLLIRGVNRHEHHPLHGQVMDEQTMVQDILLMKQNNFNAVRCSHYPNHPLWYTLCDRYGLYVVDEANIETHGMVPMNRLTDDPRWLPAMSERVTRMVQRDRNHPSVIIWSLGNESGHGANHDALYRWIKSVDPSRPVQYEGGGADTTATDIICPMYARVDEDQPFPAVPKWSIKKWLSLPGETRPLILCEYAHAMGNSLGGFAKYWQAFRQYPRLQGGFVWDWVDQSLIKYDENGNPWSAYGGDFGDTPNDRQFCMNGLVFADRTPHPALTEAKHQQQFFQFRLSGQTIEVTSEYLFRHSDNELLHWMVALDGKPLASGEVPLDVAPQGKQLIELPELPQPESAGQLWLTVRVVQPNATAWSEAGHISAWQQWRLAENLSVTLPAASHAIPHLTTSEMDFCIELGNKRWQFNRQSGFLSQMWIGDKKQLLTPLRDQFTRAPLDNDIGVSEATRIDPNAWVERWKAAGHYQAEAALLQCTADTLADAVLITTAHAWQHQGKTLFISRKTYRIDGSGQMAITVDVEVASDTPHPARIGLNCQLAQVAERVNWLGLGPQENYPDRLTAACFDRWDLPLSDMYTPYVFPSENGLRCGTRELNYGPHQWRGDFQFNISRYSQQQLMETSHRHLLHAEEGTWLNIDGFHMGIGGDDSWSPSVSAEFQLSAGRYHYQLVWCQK
Cytochrome P450 2C19, sequence (P33261 whole entry): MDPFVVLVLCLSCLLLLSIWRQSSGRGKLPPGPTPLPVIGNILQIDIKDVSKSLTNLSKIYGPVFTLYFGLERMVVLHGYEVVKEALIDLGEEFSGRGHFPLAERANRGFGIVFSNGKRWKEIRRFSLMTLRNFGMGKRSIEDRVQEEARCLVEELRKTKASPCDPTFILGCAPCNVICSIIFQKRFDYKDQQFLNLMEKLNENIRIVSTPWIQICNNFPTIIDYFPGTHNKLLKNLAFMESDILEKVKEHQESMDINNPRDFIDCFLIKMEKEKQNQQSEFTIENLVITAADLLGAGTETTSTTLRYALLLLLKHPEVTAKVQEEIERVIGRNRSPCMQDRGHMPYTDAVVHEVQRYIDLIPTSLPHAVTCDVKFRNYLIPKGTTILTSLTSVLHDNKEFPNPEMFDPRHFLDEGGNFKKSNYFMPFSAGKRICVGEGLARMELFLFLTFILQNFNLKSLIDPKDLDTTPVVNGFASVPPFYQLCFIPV
Protein Wnt-3a, sequence (P27467 whole entry): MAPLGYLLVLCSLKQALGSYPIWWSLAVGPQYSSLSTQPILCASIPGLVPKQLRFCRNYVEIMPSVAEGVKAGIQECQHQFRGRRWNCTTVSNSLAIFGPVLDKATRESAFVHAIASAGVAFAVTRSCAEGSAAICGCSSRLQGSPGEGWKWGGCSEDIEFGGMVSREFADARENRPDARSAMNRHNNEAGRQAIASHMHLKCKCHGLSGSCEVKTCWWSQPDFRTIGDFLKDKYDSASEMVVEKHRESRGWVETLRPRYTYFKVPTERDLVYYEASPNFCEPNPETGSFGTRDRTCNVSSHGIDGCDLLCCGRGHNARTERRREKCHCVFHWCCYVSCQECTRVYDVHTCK
Nonstructural protein 1, sequence (Q194T2 whole entry): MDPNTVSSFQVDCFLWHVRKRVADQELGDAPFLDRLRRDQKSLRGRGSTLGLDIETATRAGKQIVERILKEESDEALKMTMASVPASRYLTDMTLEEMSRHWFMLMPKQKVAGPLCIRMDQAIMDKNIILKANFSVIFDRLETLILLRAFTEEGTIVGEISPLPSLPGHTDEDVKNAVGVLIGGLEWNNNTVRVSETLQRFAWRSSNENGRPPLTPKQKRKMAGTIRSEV

## N#CC1=C(SCC(=O)c2ccc(Br)cc2)N=C2CCCC(O)=C2C1c1ccco1 (centres undefined)
[1]
  EC50: 4.34 µM (active)
[2]
  EC50: 5.58 µM (active)
[3]
  AC50: 2.13 µM (active)

## COC(=O)COc1ccc2c(=O)c(Oc3ccccc3)c(C)oc2c1
[4]
  IC50: 2.94 µM (active)
[5]
  Ki: > 66.7 µM (inactive)

## Cc1ccc(NC(=O)c2ccc([N+](=O)[O-])o2)c(C)c1
[6]
  CC50: 15.4 µM (active)
[7]
  CC50: > 20 µM (active)
[8]
  CC50: 6.74 µM (active)
[4]
  IC50: 3.46 µM (active)

## CCN1C(=O)/C(=C2\SC(=S)N(CCCOC)C2=O)c2ccccc21
[9]
  IC50: 62.7 µM (active)
[10]
  AC50: 11.2 µM (inconclusive)
[5]
  Ki: > 66.7 µM (inactive)
[11]
  AC50: 3.55 µM (inconclusive)

## Oc1[nH]c2ccc(Br)cc2c1N=Nc1nn[nH]n1
[12]
  IC50: 26.5 µM (active)
[13]
  EC50: 14 µM (active)
[14]
  EC50: 5.18 µM (active)

## Cc1ccc(Cl)cc1N1CCN(C(=O)c2ccc(NS(=O)(=O)c3c(C)noc3C)cc2)CC1
[1]
  EC50: 13.2 µM (active)
[2]
  EC50: 16.7 µM (active)

## OCCNc1nc(O)c2c(ncn2Cc2ccccc2)n1
[15]
  EC50: > 32 µM (inactive)

## C=CCOc1ccc(C2C(C(=O)c3cccs3)=C(O)C(=O)N2c2nnc(C)s2)cc1 (centres undefined)
[13]
  EC50: 10.8 µM (inconclusive)
[14]
  EC50: 3.06 µM (active)
[5]
  Ki: 40.5 µM (inactive)

## CCOc1cccc(C(=O)C2=C(O)C(=O)N(CCOC)C2c2ccc(C)o2)c1 (centres undefined)
[5]
  Ki: 13.5 µM (active)

## CCC1(C)Nc2ccccc2C(=O)N1O (centres undefined)
[1]
  EC50: 17.1 µM (active)
[2]
  EC50: > 20 µM (not active)

## NC(=O)c1nsc(C(=O)N(c2ccc(F)cc2)C(C(=O)NCC2CCCO2)c2c[nH]c3ccccc23)c1N (centres undefined)
[16]
  IC50: > 20 µM (inactive)

## O=C(CSc1nccn1-c1ncc(C(F)(F)F)cc1Cl)c1ccc(Cl)cc1
[17]
  IC50: > 66.6 µM (inactive)

## Cc1ccc(/C=C2\SC(=S)N(c3c(C)n(C)n(-c4ccccc4)c3=O)C2=O)cc1
[12]
  IC50: 120 µM (active)
[18]
  IC50: > 66 µM (inactive)
[19]
  IC50: > 66 µM (inactive)

## O=c1[nH]c2ccccc2n1C1CCN(C(c2ccccc2OC(F)(F)F)c2nnnn2-c2ccc3c(c2)OCCO3)CC1 (centres undefined)
[20]
  AC50: 4.52 µM (active)
[21]
  IC50: > 69.5 µM (inactive)

## CCOC(=O)C1=C(N)n2c(s/c(=C\c3ccco3)c2=O)=C(C(=O)OCC)C1c1ccco1 (centres undefined)
[22]
  EC50: > 120 µM (not active)
[23]
  EC50: > 120 µM (not active)
[24]
  EC50: > 120 µM (not active)
[1]
  EC50: 1.47 µM (active)
[2]
  EC50: 1.19 µM (active)
[11]
  AC50: 28.2 µM (inconclusive)

## O=C(N[C@@H]1C/C=C\C[C@@H](CC(=O)N(CCO)Cc2ccccc2)C(=O)NCCOC1=O)OCC1c2ccccc2-c2ccccc21
[25]
  IC50: 24.2 µM (inactive)

## O=C(CNC(=O)c1ccccc1Cl)N/N=C/c1ccc([N+](=O)[O-])s1
[6]
  CC50: 25 µM (active)
[7]
  CC50: > 20 µM (active)
[8]
  CC50: 13.6 µM (active)
[4]
  IC50: 36.6 µM (active)

## NS(=O)(=O)c1ccc(N/N=C/c2ccc3c(c2)OCO3)c([N+](=O)[O-])c1
[26]
  IC50: 3.59 µM (active)
